Data reported in BindingDB's records for doi:10.1021/acs.biochem.6b01152 (University of California San Diego, 2017).
pKd: −log10 of the molar value.

Experiments:
Assay in all cases: 8-[Fluo]-cAMP Fluorescence Polarization Binding Assay
[1] = target: cAMP-dependent protein kinase type I-alpha regulatory subunit [K242A] (Homo sapiens, UniProt P10644, K242A)
Description: (§1) The ability of the R subunit basic patch mutants to bind cAMP in the absence of the C subunit was tested using the fluorescent cAMP analogue, 8-[fluo]-cAMP (Biolog), used at a final concentration of 10 nM. Wells were titrated with a rangeof R subunit concentrations (from 0 to 125 nM), which were diluted with FP assay buffer.

[2] = target: cAMP-dependent protein kinase type I-alpha regulatory subunit [R243A] (Homo sapiens, UniProt P10644, R243A)
Chain of cAMP-dependent protein kinase type I-alpha regulatory subunit [R243A] (P10644 whole entry R243A): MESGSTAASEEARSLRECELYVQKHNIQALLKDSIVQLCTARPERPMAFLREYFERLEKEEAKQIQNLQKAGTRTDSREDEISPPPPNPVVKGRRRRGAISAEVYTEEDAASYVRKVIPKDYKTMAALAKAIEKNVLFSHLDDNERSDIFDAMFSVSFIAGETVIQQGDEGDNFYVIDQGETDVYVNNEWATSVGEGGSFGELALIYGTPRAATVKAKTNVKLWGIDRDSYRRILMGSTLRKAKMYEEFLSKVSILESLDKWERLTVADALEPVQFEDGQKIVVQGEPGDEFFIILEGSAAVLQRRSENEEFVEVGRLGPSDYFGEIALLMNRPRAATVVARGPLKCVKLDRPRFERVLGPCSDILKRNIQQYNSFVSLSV
Description: as §1

[3] = target: cAMP-dependent protein kinase type I-alpha regulatory subunit [R241A] (Homo sapiens, UniProt P10644, R241A)
Chain of cAMP-dependent protein kinase type I-alpha regulatory subunit [R241A] (P10644 whole entry R241A): as the sequence (P10644 whole entry R243A) above, with R241A, A243R counted along it
Description: as §1

[4] = target: cAMP-dependent protein kinase type I-alpha regulatory subunit (Homo sapiens, UniProt P10644)
Chain of cAMP-dependent protein kinase type I-alpha regulatory subunit (P10644 whole entry): as the sequence (P10644 whole entry R243A) above, with A243R counted along it
Description: as §1

[5] = target: cAMP-dependent protein kinase type I-alpha regulatory subunit [K244A] (Homo sapiens, UniProt P10644, K244A)
Chain of cAMP-dependent protein kinase type I-alpha regulatory subunit [K244A] (P10644 whole entry K244A): as the sequence (P10644 whole entry R243A) above, with A243R, K244A counted along it
Description: as §1

Chain of cAMP-dependent protein kinase type I-alpha regulatory subunit [K242A] (P10644 whole entry K242A): as the sequence (P10644 whole entry R243A) above, with K242A, A243R counted along it

SMILES: Nc1ncnc2c1nc(SCCNC(=S)Nc1ccc(-c3c4ccc(=O)cc-4oc4cc(O)ccc34)c(C(=O)O)c1)n2C1OC2COP(=O)(O)OC2C1O (stereo not given) [8-[Fluo]-cAMP]
- pKd [1]: 8.14
- pKd [2]: 8.14
- pKd [3]: 8.17
- pKd [4]: 8.14
- pKd [5]: 8.11
